Test [1] deals with T1, Gonadotropin-releasing hormone receptor (Rattus norvegicus, UniProt P30969).
T1 sequence (P30969 whole entry): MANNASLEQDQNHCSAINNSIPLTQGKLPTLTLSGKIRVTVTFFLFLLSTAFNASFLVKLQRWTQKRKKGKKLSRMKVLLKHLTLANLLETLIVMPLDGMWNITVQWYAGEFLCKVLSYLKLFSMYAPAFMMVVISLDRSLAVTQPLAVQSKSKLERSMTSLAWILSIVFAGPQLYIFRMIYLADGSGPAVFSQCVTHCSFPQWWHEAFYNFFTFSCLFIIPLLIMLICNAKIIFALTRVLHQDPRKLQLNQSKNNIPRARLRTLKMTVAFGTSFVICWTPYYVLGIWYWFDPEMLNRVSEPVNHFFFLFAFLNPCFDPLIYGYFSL
As to the kind of experiment: In vitro binding affinity towards […] from rat pituitary cells is expressed as negative logarithm of the equilibrium dissociation constant. In kind it is cell-based, Pituitary gland cell.

Test [2] deals with Gonadotropin-releasing hormone receptor (Rattus norvegicus) (UniProt P30969). As to the kind of experiment: Luteinizing hormone inhibiting potency in rats is expressed as negative logarithm of the concentration (antagonist). Particulars: read-out: pA2 (converted).

For orientation: Ki means a dissociation constant, usually derived from enzyme kinetics or from competition with a known ligand. A lower Ki goes with tighter binding.

In turn, `CCNC(=O)[C@@H]1CCCN1C(=O)[C@H](CCCN=C(N)N)NC(=O)[C@H](CC(C)C)NC(=O)[C@@H](CC(C)C)NC(=O)[C@H](Cc1ccc(O)cc1)NC(=O)[C@H](CO)NC(=O)[C@@H](N)Cc1cccc2ccccc12` showed a Ki in test [1] of 0.0501 µM.
For the molecule `CCNC(=O)[C@@H]1CCCN1C(=O)[C@H](CCCN=C(N)N)NC(=O)[C@H](CC(C)C)NC(=O)[C@@H](CC(C)C)NC(=O)[C@H](Cc1ccc(O)cc1)NC(=O)[C@H](CO)NC(=O)[C@@H](N)Cc1c[nH]c2ccccc12`, the Kb in test [2] was 0.871 µM.
Regarding `CCNC(=O)[C@@H]1CCCN1C(=O)[C@H](CCCN=C(N)N)NC(=O)[C@H](CC(C)C)NC(=O)[C@@H](Cc1c[nH]c2ccccc12)NC(=O)[C@H](Cc1ccc(O)cc1)NC(=O)[C@H](CO)NC(=O)[C@@H](N)Cc1c[nH]c2ccccc12`, the Kb in test [2] was 0.0575 µM.

The values are drawn from ChEMBL document CHEMBL1124356, “Active reduced-size hexapeptide analogues of luteinizing hormone-releasing hormone” (J Med Chem, 1989).
